# What was measured:
# [1] = test system: TSP-1 transcription in mouse stromal cells in implanted H460 tumors; experiment: TSP-1 transcription in mouse stromal cells of implanted H460 tumors; format: in vivo; details: Compound A 100 mg/kg, Compound B 40 mg/kg, 5 repeated oral doses
# Protocol: […] Each group contains three mice. […] The expression level of TSP-1 mRNA was detected by ABI7700 analyzer using probe/primer pre-mixture reagent (ABI, Cat# Mm01335418 ml) and TaqMan® Universal PCR Master Mix (ABI, Cat# 430-4437) as described in the ABI's protocol.
# [2] = test system: TSP-1 (THBS1) transcription in human cancer HCT15 cells; experiment: Microarray analysis of TSP-1 (THBS1) transcription in HCT15 cells; format: cell-based; details: HCT15 cells in vitro, 24 hours
# Source text: Total RNAs were extracted and RNA quality analysis was done using Agilent 2100 bioanalyzer and Agilent's RNA Labchip kits. RNAs were labeled with either Cy3 or Cy5 using Agilent's optimized labeling kits and hybridized to Human whole genome 44K Oligo Microarray (Agilent, Palo Alto, Calif.). Slides were scanned using DNA microarry scanner from Agilent and the raw data was extracted using Agilent's image analysis tool (feature extraction software). Normalization and statistical analysis were performed using GeneSpring software. Biological analysis was performed using Biointerpreter software.
# [3] = test system: MT3 transcription in human colon cancer HCT15 cells; experiment: MT3 transcription in HCT15 cells, real time RT-PCR; format: cell-based; details: 1 uM
# Protocol: Total RNAs were extracted from cell pellets or from tumors using QiaShredder and RNeasy mini kit (Qiagen). 1 μg RNA was converted into cDNA using Expand RT enzyme (Roche) and Oligo(dT) primers (Invitrogen) in a 20 μl reaction volume. For quantitative real-time PCR, the primers used for MT3 were [NT] and [NT] and those for β-actin were [NT] and [NT]. Reactions with either pair of primers included an annealing temperature of 63.4° C. All real-time PCR reactions were performed on the MasterCycler ep Realplex (Eppendorf) using FastStart SYBRGreen Master (Roche).
# [4] = test system: human H460 non-small cell lung tumor, Du145 prostate tumor, TSU-Pr1 prostate tumor, and AZ521 gastric tumor xenograft; experiment: Xenograft combination studies with taxol (Example 15); format: in vivo, mouse; details: oral administration, nude mice with human lung, prostate and gastric tumors
# Protocol: Antitumor studies were done using human H460 non-small cell lung tumor, Du145 prostate tumor, TSU-Pr1 prostate tumor, and AZ521 gastric tumor xenograft model in male BALBc/A nude mice (from Japan Crea Inc., Japan). Male nude mice were used at age 8-10 weeks. Human carcinoma cells were injected subcutaneously in the animal flank and allowed to form solid tumors. Tumor fragments (about 2 mm^3 fragments) were then removed and implanted subcutaneously through a small surgical incision to the right flank of other animals. […] Tumor volumes and gross body weight of animals were monitored twice weekly for up to 2 weeks for AZ-521 and TSU-Pr1, or 4 weeks for H460 and Du145 xenografts. Each experimental group contained 6 animals.
# [5] = target: T1, HDAC3 (Homo sapiens, UniProt O15379); experiment: Fluorescence-based HDAC enzyme assay, recombinant HDAC3; format: biochemical; details: recombinant human HDAC enzyme in vitro; read-out: IC50 (μM) HD3
# T1 construct: cDNAs corresponding to the full length human HDAC1, 2, 3 and 11 were cloned into pBlueBac4.5 vector; FLAG (C); made in house; host or cells: Sf-9 insect cells (baculovirus)
# T1 sequence (O15379 whole entry): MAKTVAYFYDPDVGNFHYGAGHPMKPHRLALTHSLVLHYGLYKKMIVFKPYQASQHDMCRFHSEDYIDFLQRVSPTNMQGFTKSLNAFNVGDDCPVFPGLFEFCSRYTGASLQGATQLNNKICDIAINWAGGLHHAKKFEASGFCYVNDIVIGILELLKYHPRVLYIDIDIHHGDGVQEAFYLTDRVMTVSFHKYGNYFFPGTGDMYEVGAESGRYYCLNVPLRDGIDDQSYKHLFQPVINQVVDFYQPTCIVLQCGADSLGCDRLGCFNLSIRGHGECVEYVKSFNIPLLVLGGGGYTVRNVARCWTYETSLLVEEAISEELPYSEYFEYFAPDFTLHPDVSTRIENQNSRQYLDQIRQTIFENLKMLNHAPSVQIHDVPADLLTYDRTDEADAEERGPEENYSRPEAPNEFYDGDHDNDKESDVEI
# Source text: cDNAs of human HDAC1-8 and 11 were generated by RT-PCR reactions using primers complementary to the 5′ and 3′ coding sequence of human HDAC gene sequences in GenBank. cDNAs corresponding to the full length human HDAC1, 2, 3 and 11 were cloned into pBlueBac4.5 vector (Invitrogen). The constructs were used to generate recombinant baculoviruses using the Bac-N-Blue™ DNA according to the manufacturer's instructions (Invitrogen). The recombinant HDAC1, 2, 3, 11 proteins produced harbor a FLAG tag at their C-termini. cDNAs encoding truncated versions of HDAC4, 5 and 7 encompassing their deacetylase domains were cloned into pDEST10 as an N-terminal hexahistidine fusion protein and recombinant baculoviruses were generated using the Bac-to-Bac™ Baculovirus expression system (Invitrogen). HDAC6 and 8 were cloned as full length N-terminally His-tagged protein. All HDAC proteins were expressed in insect Sf-9 cells (Spodoptera frugiperdai) upon infection with recombinant baculovirus. HDAC1 enzyme was purified from the Q-sepharose FF column (Amersham Pharmacia Biotech, Baie d'Urfe QC, Canada) followed by an anti-FLAG immunoaffinity column (Sigma). HDAC2, 3 and 11 were purified using Flag-antibody immunoaffinity purification. HDAC4, 5, 6, 7 and 8 were purified using either Ni-NTA resin (QIAGEN Mississauga ON, Canada) or His-Select resin (Sigma) with step washes and elution with different concentrations of imidazole in Buffer containing 25 mM Tris (or NaPO4) pH 8.0, 10% glycerol and 150 mM or 500 mM NaCl.
# Recombinant HDAC enzymes were incubated with diluted compounds in assay buffer (25 mM Hepes, pH 8.0, 137 mM NaCl, 1 mM MgCl2 and 2.7 mM KCl) for 10 minutes at ambient temperatures in black 96-well plate. Boc-Lys(Ac)-AMC (for HDAC1, 2, 3, 6, and 8 enzymes), which was purchased from Bachem Biosciences Inc., (King of Prussia, Philadelphia) were added into enzyme-compound mixture and incubated at 37° C. […] After 30 minutes, fluorescence was measured using a fluorometer (SPECTRAMAX GeminiXS, Molecular Devices, Sunnylvale, Calif.). […]
# [6] = test system: human Du145 prostate tumor xenograft; experiment: Du145 prostate tumor xenograft, combination with taxol; format: in vivo, mouse; details: Du145, oral once daily 14 days with taxol 60 mg/kg i.v.
# Protocol: Antitumor studies were done using human Du145 prostate tumor xenograft model in male BALBc/A nude mice (from Japan Crea Inc., Japan). Male nude mice were used at age 8-10 weeks. Human carcinoma cells were injected subcutaneously in the animal flank and allowed to form solid tumors. Tumor fragments (about 2 mm^2 fragments) were then removed and implanted subcutaneously to the right flank of other animals. When the tumor sizes reached about 100 to 200 mm^3, recipient animals were treated with Compound D, Compound E, Compound F, Compound G or Compound H (suspended with 0.5% HPMC) by oral administration alone, or taxol by i.v. injection (60 mg/kg), or combination of taxol with oral administration of Compound D, Compound E, Compound F, Compound G, Compound H. Typically, taxol was administered once per week by iv injection on the first day as a single administration, while Compound D, Compound E, Compound F, Compound G, or Compound H were administered once daily for 14 days. Tumor volumes and gross body weight of animals were monitored twice weekly for up to 2 weeks. Each experimental group contained at least 6 animals.
structure (smiles),measurement,setting,value
Nc1ccccc1NC(=O)c1ccc(CNc2nccc(-c3cccnc3)n2)cc1 [Compound A],TSP-1 transcription in mouse stromal cells,[1],induction
same,TSP-1 (THBS1) transcription,[2],induction
same,MT3 transcription,[3],much more potent than SAHA
same,antitumor activity of taxol,[4],Potentiation
Nc1ccccc1NC(=O)c1ccc(N2CC[C@H](Nc3cccnc3)C2)cc1 [Compound B],IC50,[5],0.3 µM
same,TSP-1 transcription in mouse stromal cells,[1],induction
same,TSP-1 (THBS1) transcription,[2],induction
same,antitumor activity of taxol,[4],Potentiation
Nc1ccc(-c2ccccc2)cc1NC(=O)c1ccc(N2CC[C@H](N)C2)cc1 [Compound D],IC50,[5],9 µM
same,antitumor activity of taxol,[6],Potentiation
Nc1ccc(-c2ccccc2)cc1NC(=O)c1ccc(N2CCC(N)CC2)cc1 [Compound E],antitumor activity of taxol,[6],Potentiation
CN1CCN(c2ccc(C(=O)Nc3cc(-c4ccccn4)ccc3N)cc2)CC1 [Compound F],antitumor activity of taxol,[6],Potentiation
CN1CCN(c2ccc(C(=O)Nc3cc(-c4ccncc4)ccc3N)cc2)CC1 [Compound G],antitumor activity of taxol,[6],Potentiation
CC(C)N1CCN(c2ccc(C(=O)Nc3cc(-c4ccncc4)ccc3N)cc2)CC1 [Compound H],antitumor activity of taxol,[6],Potentiation

# From patent US20090124631A1, “Combination Therapy” (priority 2007, published 2009)
